Structures are written as SMILES. Where “and” joins values, the source holds several entries; their conditions need not be identical. Equal entries are not always repeated.

This assay deals with CD2F1 mice, P1798 lymphosarcoma sc, tumor weight T/C. Briefly: NCI In Vivo Anticancer Drug Screen. Data for tumor model P1798 Lymphosarcoma (subcutaneous) in CD2F1 (CDF1) mice. The settings on record: endpoint: mean tumor weight, higher = larger tumour. The method, then: The antitumor activity of compounds was measured in mice bearing transplantable tumors. Survival or tumor size were measured and the results are expressed as the measurement made in the treated group (T) divided by the measurement made in the vehicle treated control group (C). The tumor model used in this assay is P1798 Lymphosarcoma (subcutaneous) in CD2F1 (CDF1) mice

Setting [1] is: dose: 12.5 mg/kg/injection, schedule: Q01DX010 (ip), vehicle: saline.
Where [2] appears, read: dose: 25.0 mg/kg/injection, schedule: Q01DX010 (ip), vehicle: saline.
[3] abbreviates: dose: 50.0 mg/kg/injection, schedule: Q01DX010 (ip), vehicle: saline.
Where [4] appears, read: dose: 20.0 mg/kg/injection, schedule: Q01DX010 (ip), vehicle: saline.
[5] abbreviates: dose: 40.0 mg/kg/injection, schedule: Q01DX010 (ip), vehicle: saline.
[6] abbreviates: dose: 25.0 mg/kg/injection, schedule: Q01DX010 (sc), vehicle: steriod suspending solution.
Where [7] appears, read: dose: 100.0 mg/kg/injection, schedule: Q01DX010 (ip), vehicle: saline.
Setting [8] is: dose: 200.0 mg/kg/injection, schedule: Q01DX010 (ip), vehicle: saline.
[9] abbreviates: dose: 62.5 mg/kg/injection, schedule: Q01DX010 (ip), vehicle: saline.
Where [10] appears, read: dose: 400.0 mg/kg/injection, schedule: Q01DX010 (ip), vehicle: saline.
Where [11] appears, read: dose: 250.0 mg/kg/injection, schedule: Q01DX010 (ip), vehicle: saline.

`CCc1c(CC(=O)O)c2cc(C)ccc2n1Cc1ccc(Cl)cc1`: the T/C – broadly, the ratio of treated to control – reads like this: under setting [1], 120 % of control; under setting [2], 87 % of control; under setting [3], 54 % of control.

Consider `O=C1NC2C(NC(=O)N2Cl)N1Cl` (configuration not stated), for which the T/C under setting [4] is 80 % of control; the T/C under setting [5] is 90 % of control; the T/C (dose: 80.0 mg/kg/injection, schedule: Q01DX010 (ip), vehicle: saline) was 76 % of control.

For the molecule `C#C[C@]1(O)CC[C@H]2[C@@H]3CCc4cc(O)ccc4[C@H]3CC[C@@]21C`, the T/C under setting [6] is 71 % of control and 85 % of control.

Consider `CC(=O)[C@H]1CC[C@H]2[C@@H]3CCC4=CC(=O)[C@H](C)C[C@]4(C)[C@@]3(F)[C@@H](O)C[C@]12C`, for which the T/C reads like this: under setting [6], 15 % of control; (dose: 50.0 mg/kg/injection, schedule: Q01DX010 (sc), vehicle: steriod suspending solution) 5 % of control; (dose: 100.0 mg/kg/injection, schedule: Q01DX010 (sc), vehicle: steriod suspending solution) 4 % of control; (dose: 200.0 mg/kg/injection, schedule: Q01DX010 (sc), vehicle: steriod suspending solution) 6 % of control; (dose: 400.0 mg/kg/injection, schedule: Q01DX010 (sc), vehicle: steriod suspending solution) 5 % of control.

Consider `CC(=O)OC(C)(C)/C=C/C(=O)[C@](C)(O)[C@H]1[C@H](O)C[C@@]2(C)[C@@H]3CC=C4[C@@H](C[C@H](O)C(=O)C4(C)C)[C@]3(C)C(=O)C[C@]12C`, for which the T/C was 99 % of control (dose: 0.1 mg/kg/injection, schedule: Q01DX009 (ip), vehicle: saline); 71 % of control (dose: 0.16 mg/kg/injection, schedule: Q01DX010 (ip), vehicle: saline); 68 % of control (dose: 0.2 mg/kg/injection, schedule: Q01DX009 (ip), vehicle: saline); 106 % of control (dose: 0.2 mg/kg/injection, schedule: Q01DX011 (ip), vehicle: carboxymethylcellulose (CMC)); 70 % of control (dose: 0.25 mg/kg/injection, schedule: Q01DX010 (ip), vehicle: saline); 56 % of control (dose: 0.3 mg/kg/injection, schedule: Q01DX011 (ip), vehicle: carboxymethylcellulose (CMC)). Also, the T/C is, setting by setting: (dose: 0.38 mg/kg/injection, schedule: Q01DX010 (ip), vehicle: saline) 70 % of control; (dose: 0.4 mg/kg/injection, schedule: Q01DX009 (ip), vehicle: saline) 77 % of control; (dose: 0.57 mg/kg/injection, schedule: Q01DX010 (ip), vehicle: saline) 62 % of control; (dose: 0.6 mg/kg/injection, schedule: Q01DX011 (ip), vehicle: carboxymethylcellulose (CMC)) 82 % of control; (dose: 0.8 mg/kg/injection, schedule: Q01DX011 (ip), vehicle: carboxymethylcellulose (CMC)) 11 % of control.

For `NCCCCC(N)C(=O)NCCCCCCNC(=O)CCCCC(=O)NCCCCCCNC(=O)C(N)CCCCN` (configuration not stated), the T/C under setting [1] is 101 % of control, the T/C under setting [2] is 90 % of control, the T/C under setting [3] was 94 % of control and the T/C under setting [7] was 110 % of control.

For the molecule `O=C(NCCCCC(NC(=O)OCc1ccccc1)C(=O)NCCCCCCNCCCCCCNC(=O)C(CCCCNC(=O)OCc1ccccc1)NC(=O)OCc1ccccc1)OCc1ccccc1` (configuration not stated), the T/C under setting [1] is 78 % of control; the T/C under setting [2] is 66 % of control; the T/C under setting [7] was 44 % of control and 61 % of control; the T/C under setting [8] was 70 % of control.

On to `CN(C)c1ccc(/C=C/c2ccnc3ccccc23)cc1`, for which the T/C (dose: 5.0 mg/kg/injection, schedule: Q01DX010 (ip), vehicle: saline) was 59 % of control; the T/C under setting [4] was 39 % of control and 46 % of control; the T/C under setting [5] was 30 % of control and 38 % of control.

On to `C[C@]12C=CC(=O)C=C1CC[C@@H]1[C@@H]2[C@@H](O)C[C@@]2(C)[C@H]1CC[C@]2(O)C(=O)CO`, for which the T/C by setting is: (dose: 12.5 mg/kg/injection, schedule: Q01DX005 (sc), vehicle: steriod suspending solution) 41 % of control; (dose: 12.5 mg/kg/injection, schedule: Q01DX010 (sc), vehicle: steriod suspending solution) 42 % of control and 46 % of control; (dose: 25.0 mg/kg/injection, schedule: Q01DX005 (sc), vehicle: steriod suspending solution) 48 % of control; (dose: 25.0 mg/kg/injection, schedule: Q02DX010 (sc), vehicle: steriod suspending solution) 100 % of control; (dose: 25.0 mg/kg/injection, schedule: Q03DX004 (sc), vehicle: steriod suspending solution) 87 % of control; (dose: 50.0 mg/kg/injection, schedule: Q01DX005 (sc), vehicle: steriod suspending solution) 22 % of control. Besides, the T/C was 100 % of control (dose: 50.0 mg/kg/injection, schedule: Q02DX010 (sc), vehicle: steriod suspending solution); 92 % of control (dose: 50.0 mg/kg/injection, schedule: Q03DX004 (sc), vehicle: steriod suspending solution); 20 % of control (dose: 100.0 mg/kg/injection, schedule: Q01DX005 (sc), vehicle: steriod suspending solution); 96 % of control (dose: 100.0 mg/kg/injection, schedule: Q02DX010 (sc), vehicle: steriod suspending solution); 100 % of control (dose: 100.0 mg/kg/injection, schedule: Q03DX004 (sc), vehicle: steriod suspending solution).

Take `CCn1cnc2c(=S)nc[nH]c21`: the T/C under setting [9] was 96 % of control and 79 % of control.

On to `CC(=O)NCCCCCCCCCCNC(C)=O`, for which the T/C by setting is: under setting [3], 96 % of control; under setting [7], 113 % of control; under setting [8], 93 % of control; under setting [10], 76 % of control.

As for `c1ccc(CSc2ncnc3nc[nH]c23)cc1`, the T/C reads like this: under setting [1], 70 % of control and 82 % of control; under setting [2], 83 % of control and 85 % of control; under setting [7], 13 % of control.

Consider `CSc1ncnc2nc[nH]c12`, for which the T/C by setting is: under setting [2], 100 % of control and 78 % of control; under setting [3], 81 % of control and 86 % of control; under setting [7], 94 % of control and 70 % of control; under setting [8], 61 % of control and 64 % of control.

Turning to `COC1C(OC(=O)/C=C/C=C/C=C/C=C/C(=O)O)CCC2(CO2)C1C1(C)OC1CC=C(C)C` (configuration not stated), the T/C is, setting by setting: under setting [2], 56 % of control; under setting [3], 46 % of control; under setting [7], 28 % of control.

For the molecule `O=C(O)C(=O)O.[U]`, the T/C runs as follows: (dose: 1.56 mg/kg/injection, schedule: Q01DX010 (ip), vehicle: saline) 64 % of control; (dose: 3.13 mg/kg/injection, schedule: Q01DX010 (ip), vehicle: saline) 45 % of control; (dose: 6.25 mg/kg/injection, schedule: Q01DX010 (ip), vehicle: saline) 28 % of control; under setting [1], 30 % of control.

As for `COc1ccc2c(c1OC)C(=O)O[C@@H]2[C@H]1c2c(cc3c(c2OC)OCO3)CCN1C`, the T/C reads like this: (dose: 15.6 mg/kg/injection, schedule: Q01DX010 (ip), vehicle: saline) 107 % of control; (dose: 31.3 mg/kg/injection, schedule: Q01DX010 (ip), vehicle: saline) 78 % of control; (dose: 125.0 mg/kg/injection, schedule: Q01DX010 (ip), vehicle: saline) 97 % of control; under setting [11], 78 % of control.

Regarding `O=c1cnn(C2OC(CO)C(O)C2O)c(=O)[nH]1` (configuration not stated), the T/C is 80 % of control under setting [3], 73 % of control under setting [7], 49 % of control under setting [8] and 17 % of control under setting [10].

For the molecule `CC[n+]1c(-c2ccccc2)c2cc(N)ccc2c2ccc(N)cc21`, the T/C reads like this: (dose: 1.25 mg/kg/injection, schedule: Q01DX010 (ip), vehicle: saline) 108 % of control; (dose: 2.5 mg/kg/injection, schedule: Q01DX010 (ip), vehicle: saline) 97 % of control; (dose: 10.0 mg/kg/injection, schedule: Q01DX010 (ip), vehicle: saline) 4 % of control and 10 % of control.

Regarding `O=CN(O)CC(=O)O`, the T/C reads like this: under setting [9], 92 % of control and 67 % of control; under setting [11], 104 % of control and 108 % of control.

The values above are taken from PubChem BioAssay AID268 (DTP/NCI, 2004).
